From US7423009B2, “Method for treatment of kidney diseases” (Kowa Company, Ltd., priority 2002, dated 2008)

System: nephritis induced by anti-GBM antiserum in wild type mouse
Assay: Nephritis induced by anti-GBM antiserum in wild type mice: amount of albumin in urine
Format: in vivo
Conditions: for amount of albumin in urine: urine collected 18 hours after final administration
Protocol: (§1) Anti-GBM antiserum was administered to the wild type mice to induce nephritis, the mice were classified into three groups and the first group was administered with a peptide having an amino acid sequence of SLIGRL which is a selective stimulant for PAR-2 while the second group was administered with prednisolone which has been used as a treating agent for nephritis. In each group, administration was conducted once daily for consecutive seven days. The third group was a group which was not treated with a drug (control group). Further, for comparison, another untreated group where no anti-GBM antiserum was administered was prepared as the fourth group (in each group, n=6).
Immediately after the final administration of the drug solution, urine was collected for 18 hours and the amount of albumin in urine was measured.
as §1, with “In the same manner, anti-GBM” for “Anti-GBM”, “ASKH95” for “a peptide having an amino acid sequence of SLIGRL”, “group)” for “group). Further, for comparison, another untreated group where no anti-GBM antiserum was administered was prepared as the fourth group”
Nephritis was induced by a single administration of […] having about 16-fold of titer of antibody in an amount of 0.4 ml per mouse into tail vein (Jpn. J. Pharmacol., 33, 1145-1154, 1983). With regard to the amount of albumin in urine used as an index for nephritis, the amount of albumin in urine collected for 18 hours using a metabolic cage (manufactured by Sugiyamagen) was determined using an ELISA kit manufactured by Exocel and expressed in terms of μg/18 hours/100 g body weight. The resulting data were analyzed by a Student t-test and evaluated.
(§2) Anti-GBM antiserum was administered to a wild type mouse and, immediately after that, 0.3 μmol/kg of SLIGRL which is a selective stimulant for PAR-2 dissolved in a phosphate buffer or 3 mg/kg of prednisolone suspended in 0.5% methyl cellulose solution was administered thereto once daily for consecutive seven days (in each group, n=6). SLIGRL was administered to tail vein with a dose of 1 ml/100 g body weight at the rate of 0.1 ml/second. Prednisolone was compulsorily administered per os with a dose of 1 ml/100 g body weight. As a control, a group which was not treated with a drug (control group) was set up. As from immediately after the final administration of the drug solution, urine was collected for 18 hours using a metabolic cage and the amount of albumin in urine was measured.
as §2, with “In the same manner as example 3, anti-GBM” for “Anti-GBM”, “10 mg/kg” for “0.3 μmol/kg”, “ASKH95” for “SLIGRL”, “measured. Incidentally, ASKH95 is synthesized according to the literature (J. Clin. Invest. 111, 35-41, 2003), and used.” for “measured.”

For 2-furoyl-LIGKV-OH [ASKH95], the “effect on amount of albumin in urine compared with control group (in words)” value (Example 4, ASKH95 10 mg/kg to tail vein once daily for seven days) was “decreased significantly” and the “amount of albumin in urine” value (Example 4, ASKH95 10 mg/kg to tail vein once daily for seven days, control group 81319.0±8884.3) was 34709.6±8703.3 μg/18 hours/100 g body weight.

C[C@]12C=CC(=O)C=C1CC[C@@H]1[C@@H]2[C@@H](O)C[C@@]2(C)[C@H]1CC[C@]2(O)C(=O)CO [prednisolone] was tested, and the “amount of albumin in urine reduced to an extent of % of the control group” value (Example 3, prednisolone 3 mg/kg per os once daily for seven days, not a significant suppression) was 52.7%, the “amount of albumin in urine” value (Example 3, prednisolone 3 mg/kg per os once daily for seven days, control group 3528.5±1238.6) was 1670.6±579.4 μg/18 hours/100 g body weight and the “effect on amount of albumin in urine compared with control group (in words)” value (Example 4, prednisolone 3 mg/kg per os once daily for seven days) was “almost no effect”. For the same molecule, the “amount of albumin in urine” value (Example 4, prednisolone 3 mg/kg per os once daily for seven days, control group 81319.0±8884.3) was 75692.1±12846.9 μg/18 hours/100 g body weight.

For SLIGRL, the “amount of albumin in urine” value (Example 3, SLIGRL 0.3 μmol/kg to tail vein once daily for seven days, control group 3528.5±1238.6) was 104.2±54.0 μg/18 hours/100 g body weight and the “decrease of amount of albumin in urine” value (Example 3, SLIGRL 0.3 μmol/kg to tail vein once daily for seven days, versus control group, significant) was 97.0%.
